In ChEMBL document CHEMBL1152560, “Substituted 2-arylbenzothiazoles as kinase inhibitors: hit-to-lead optimization” (Bioorg Med Chem, 2009):

Legend:
[1] = molecular target: T1, cGMP-dependent protein kinase 1 (Homo sapiens) (UniProt Q13976); test: Residual activity of PRKG1 at 10 uM by microplate scintillation counting
T1 sequence (whole entry): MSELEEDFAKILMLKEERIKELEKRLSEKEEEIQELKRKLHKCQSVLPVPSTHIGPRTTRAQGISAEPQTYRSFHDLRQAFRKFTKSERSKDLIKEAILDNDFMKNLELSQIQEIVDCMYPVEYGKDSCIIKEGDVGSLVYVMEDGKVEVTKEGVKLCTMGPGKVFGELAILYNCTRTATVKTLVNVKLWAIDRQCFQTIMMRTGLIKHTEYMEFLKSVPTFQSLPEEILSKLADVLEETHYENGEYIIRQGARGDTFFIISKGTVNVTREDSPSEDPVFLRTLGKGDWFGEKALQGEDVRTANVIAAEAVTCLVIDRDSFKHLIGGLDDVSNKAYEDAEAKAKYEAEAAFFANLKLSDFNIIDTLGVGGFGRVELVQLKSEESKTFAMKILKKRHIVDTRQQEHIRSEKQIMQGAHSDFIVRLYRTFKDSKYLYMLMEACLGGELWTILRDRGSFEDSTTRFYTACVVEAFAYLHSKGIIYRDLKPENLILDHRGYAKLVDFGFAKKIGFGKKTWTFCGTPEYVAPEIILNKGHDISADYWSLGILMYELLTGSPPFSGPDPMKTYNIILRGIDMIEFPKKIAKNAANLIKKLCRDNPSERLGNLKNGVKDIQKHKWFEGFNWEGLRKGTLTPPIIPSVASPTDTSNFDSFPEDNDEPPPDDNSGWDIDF

[2] = molecular target: T2, Muscle, skeletal receptor tyrosine-protein kinase (Homo sapiens) (UniProt O15146); test: Residual activity of MUSK at 0.1 uM by microplate scintillation counting
T2 sequence (whole entry): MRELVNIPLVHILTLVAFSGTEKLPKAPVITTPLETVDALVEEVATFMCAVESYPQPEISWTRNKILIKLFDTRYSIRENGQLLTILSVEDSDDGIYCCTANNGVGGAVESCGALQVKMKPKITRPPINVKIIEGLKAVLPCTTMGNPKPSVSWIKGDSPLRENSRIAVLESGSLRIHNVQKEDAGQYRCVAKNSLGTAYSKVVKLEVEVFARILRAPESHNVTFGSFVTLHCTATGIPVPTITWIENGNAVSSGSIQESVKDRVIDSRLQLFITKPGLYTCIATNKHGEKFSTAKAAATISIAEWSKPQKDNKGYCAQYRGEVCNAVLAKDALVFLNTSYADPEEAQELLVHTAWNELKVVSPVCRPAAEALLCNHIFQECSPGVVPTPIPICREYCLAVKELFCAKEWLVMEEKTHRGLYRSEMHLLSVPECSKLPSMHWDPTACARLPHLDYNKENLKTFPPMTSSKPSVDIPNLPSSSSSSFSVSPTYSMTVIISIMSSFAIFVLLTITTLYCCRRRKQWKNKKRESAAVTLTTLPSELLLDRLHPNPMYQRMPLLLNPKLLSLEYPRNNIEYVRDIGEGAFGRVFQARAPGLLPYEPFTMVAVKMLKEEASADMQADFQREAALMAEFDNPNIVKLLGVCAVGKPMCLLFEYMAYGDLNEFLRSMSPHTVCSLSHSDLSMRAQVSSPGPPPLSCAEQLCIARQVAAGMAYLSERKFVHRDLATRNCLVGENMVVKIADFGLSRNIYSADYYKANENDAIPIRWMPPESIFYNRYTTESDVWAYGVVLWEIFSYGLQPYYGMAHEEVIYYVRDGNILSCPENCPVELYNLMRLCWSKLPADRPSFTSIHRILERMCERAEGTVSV

[3] = molecular target: Ribosomal protein S6 kinase beta-2 (Homo sapiens) (UniProt Q9UBS0); test: Residual activity of S6Kbeta at 10 uM by microplate scintillation counting
[4] = molecular target: Ribosomal protein S6 kinase alpha-5 (Homo sapiens) (UniProt O75582); test: Residual activity of RPS6KA5 at 0.1 uM by microplate scintillation counting
[5] = molecular target: T3, Serine/threonine-protein kinase BRSK1 (Homo sapiens) (UniProt Q8TDC3); test: Residual activity of BRSK1 at 1 uM by microplate scintillation counting
T3 sequence (whole entry): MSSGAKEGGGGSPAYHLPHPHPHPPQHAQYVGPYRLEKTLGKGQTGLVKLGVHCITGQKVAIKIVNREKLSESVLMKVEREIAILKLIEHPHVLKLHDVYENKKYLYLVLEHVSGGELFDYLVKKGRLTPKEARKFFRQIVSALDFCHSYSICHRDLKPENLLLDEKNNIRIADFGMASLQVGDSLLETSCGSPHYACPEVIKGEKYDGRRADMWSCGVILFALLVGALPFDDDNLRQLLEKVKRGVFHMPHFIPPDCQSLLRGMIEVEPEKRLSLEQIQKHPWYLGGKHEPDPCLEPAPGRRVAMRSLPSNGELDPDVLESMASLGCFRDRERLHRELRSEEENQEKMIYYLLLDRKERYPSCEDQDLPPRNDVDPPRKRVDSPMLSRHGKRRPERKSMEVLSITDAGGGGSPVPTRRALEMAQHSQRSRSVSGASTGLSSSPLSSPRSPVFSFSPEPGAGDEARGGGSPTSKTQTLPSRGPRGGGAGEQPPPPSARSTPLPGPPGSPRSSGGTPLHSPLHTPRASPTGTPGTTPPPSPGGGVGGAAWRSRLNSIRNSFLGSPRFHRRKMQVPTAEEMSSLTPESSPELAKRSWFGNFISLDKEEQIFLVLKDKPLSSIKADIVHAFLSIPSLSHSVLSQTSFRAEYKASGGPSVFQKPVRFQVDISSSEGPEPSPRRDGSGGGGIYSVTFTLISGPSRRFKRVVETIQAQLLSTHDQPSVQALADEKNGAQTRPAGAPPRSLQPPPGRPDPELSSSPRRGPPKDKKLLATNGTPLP

[6] = molecular target: 5'-AMP-activated protein kinase catalytic subunit alpha-1 (Homo sapiens) (UniProt Q13131); test: Residual activity of AMPK-alpha1 fl at 0.1 uM by microplate scintillation counting
[7] = molecular target: Serine/threonine-protein kinase N2 (Homo sapiens) (UniProt Q16513); test: Residual activity of PRK2 at 10 uM by microplate scintillation counting
[8] = molecular target: BDNF/NT-3 growth factors receptor (Homo sapiens) (UniProt Q16620); test: Residual activity of TRK-B at 0.1 uM by microplate scintillation counting
[9] = molecular target: Serine/threonine-protein kinase Nek6 (Homo sapiens) (UniProt Q9HC98); test: Residual activity of NEK6 at 0.1 uM by microplate scintillation counting
[10] = molecular target: Serine/threonine-protein kinase PLK3 (Homo sapiens) (UniProt Q9H4B4); test: Residual activity of PLK3 at 0.1 uM by microplate scintillation counting
[11] = molecular target: Ribosomal protein S6 kinase alpha-2 (Homo sapiens) (UniProt Q15349); test: Residual activity of RPS6KA2 at 1 uM by microplate scintillation counting
[12] = molecular target: T3, Serine/threonine-protein kinase BRSK1 (Homo sapiens); test: Residual activity of BRSK1 at 10 uM by microplate scintillation counting

Ribosomal protein S6 kinase alpha-2 (Homo sapiens), sequence (Q15349 whole entry): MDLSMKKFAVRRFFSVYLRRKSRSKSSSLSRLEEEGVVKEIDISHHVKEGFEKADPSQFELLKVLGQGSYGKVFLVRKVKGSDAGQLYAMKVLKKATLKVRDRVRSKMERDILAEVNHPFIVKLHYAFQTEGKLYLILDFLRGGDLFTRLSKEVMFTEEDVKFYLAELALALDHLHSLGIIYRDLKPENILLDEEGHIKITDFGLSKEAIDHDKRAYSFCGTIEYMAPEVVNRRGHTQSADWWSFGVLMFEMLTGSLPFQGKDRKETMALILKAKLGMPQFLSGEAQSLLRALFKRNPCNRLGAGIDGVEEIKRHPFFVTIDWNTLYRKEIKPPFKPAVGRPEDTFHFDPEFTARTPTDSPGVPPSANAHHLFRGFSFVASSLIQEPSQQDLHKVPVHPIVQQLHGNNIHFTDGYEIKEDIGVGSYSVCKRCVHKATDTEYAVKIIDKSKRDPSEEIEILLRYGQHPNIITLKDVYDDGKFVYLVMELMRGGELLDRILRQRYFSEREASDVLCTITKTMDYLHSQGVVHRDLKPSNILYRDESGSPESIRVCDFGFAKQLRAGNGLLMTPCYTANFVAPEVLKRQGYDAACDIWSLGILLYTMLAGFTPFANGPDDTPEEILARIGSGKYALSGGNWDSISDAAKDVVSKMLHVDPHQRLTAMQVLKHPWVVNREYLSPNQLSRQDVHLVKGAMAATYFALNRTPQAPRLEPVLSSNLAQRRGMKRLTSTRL
Ribosomal protein S6 kinase beta-2 (Homo sapiens), sequence (Q9UBS0 whole entry): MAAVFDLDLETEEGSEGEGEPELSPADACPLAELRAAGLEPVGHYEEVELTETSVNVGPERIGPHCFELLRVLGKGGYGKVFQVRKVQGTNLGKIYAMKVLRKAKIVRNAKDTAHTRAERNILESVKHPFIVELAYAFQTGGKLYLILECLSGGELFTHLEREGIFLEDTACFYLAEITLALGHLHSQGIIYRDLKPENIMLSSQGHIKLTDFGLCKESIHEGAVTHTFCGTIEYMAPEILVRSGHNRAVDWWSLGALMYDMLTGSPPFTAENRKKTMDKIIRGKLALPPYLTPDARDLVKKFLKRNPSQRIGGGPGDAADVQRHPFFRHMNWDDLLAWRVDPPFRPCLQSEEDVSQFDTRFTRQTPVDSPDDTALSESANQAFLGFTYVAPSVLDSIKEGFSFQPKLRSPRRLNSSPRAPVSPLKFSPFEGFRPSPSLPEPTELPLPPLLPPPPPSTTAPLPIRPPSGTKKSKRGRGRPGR
BDNF/NT-3 growth factors receptor (Homo sapiens), sequence (Q16620 32-822 limits assumed): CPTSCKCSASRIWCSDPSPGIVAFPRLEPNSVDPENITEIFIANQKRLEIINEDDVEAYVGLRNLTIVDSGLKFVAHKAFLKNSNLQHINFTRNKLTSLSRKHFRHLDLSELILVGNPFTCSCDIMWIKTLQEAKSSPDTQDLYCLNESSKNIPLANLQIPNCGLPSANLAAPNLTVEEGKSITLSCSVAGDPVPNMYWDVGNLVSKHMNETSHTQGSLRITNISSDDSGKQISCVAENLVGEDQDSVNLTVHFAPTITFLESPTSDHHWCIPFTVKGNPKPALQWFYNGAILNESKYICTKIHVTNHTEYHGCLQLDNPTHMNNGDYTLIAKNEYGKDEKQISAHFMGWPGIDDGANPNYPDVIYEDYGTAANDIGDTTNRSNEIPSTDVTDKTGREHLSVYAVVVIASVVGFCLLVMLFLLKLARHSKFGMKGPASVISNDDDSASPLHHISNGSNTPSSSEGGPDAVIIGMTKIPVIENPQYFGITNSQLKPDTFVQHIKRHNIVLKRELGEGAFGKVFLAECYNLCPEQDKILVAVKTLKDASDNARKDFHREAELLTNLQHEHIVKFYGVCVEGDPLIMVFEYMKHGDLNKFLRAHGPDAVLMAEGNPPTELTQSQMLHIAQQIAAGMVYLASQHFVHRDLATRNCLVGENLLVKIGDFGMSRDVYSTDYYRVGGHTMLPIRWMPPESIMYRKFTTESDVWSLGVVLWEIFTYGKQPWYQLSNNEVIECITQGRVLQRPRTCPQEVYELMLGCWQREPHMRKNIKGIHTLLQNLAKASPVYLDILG
Serine/threonine-protein kinase Nek6 (Homo sapiens), sequence (Q9HC98 whole entry): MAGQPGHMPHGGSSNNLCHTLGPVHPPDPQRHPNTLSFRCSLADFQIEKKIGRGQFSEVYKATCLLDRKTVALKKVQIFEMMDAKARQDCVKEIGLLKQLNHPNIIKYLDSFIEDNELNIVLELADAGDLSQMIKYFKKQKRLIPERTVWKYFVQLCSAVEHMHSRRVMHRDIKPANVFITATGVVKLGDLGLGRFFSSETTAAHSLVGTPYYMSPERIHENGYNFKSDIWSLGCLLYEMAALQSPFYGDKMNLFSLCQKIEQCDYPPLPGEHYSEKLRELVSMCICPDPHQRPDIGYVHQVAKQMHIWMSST
5'-AMP-activated protein kinase catalytic subunit alpha-1 (Homo sapiens), sequence (Q13131 whole entry, looked up): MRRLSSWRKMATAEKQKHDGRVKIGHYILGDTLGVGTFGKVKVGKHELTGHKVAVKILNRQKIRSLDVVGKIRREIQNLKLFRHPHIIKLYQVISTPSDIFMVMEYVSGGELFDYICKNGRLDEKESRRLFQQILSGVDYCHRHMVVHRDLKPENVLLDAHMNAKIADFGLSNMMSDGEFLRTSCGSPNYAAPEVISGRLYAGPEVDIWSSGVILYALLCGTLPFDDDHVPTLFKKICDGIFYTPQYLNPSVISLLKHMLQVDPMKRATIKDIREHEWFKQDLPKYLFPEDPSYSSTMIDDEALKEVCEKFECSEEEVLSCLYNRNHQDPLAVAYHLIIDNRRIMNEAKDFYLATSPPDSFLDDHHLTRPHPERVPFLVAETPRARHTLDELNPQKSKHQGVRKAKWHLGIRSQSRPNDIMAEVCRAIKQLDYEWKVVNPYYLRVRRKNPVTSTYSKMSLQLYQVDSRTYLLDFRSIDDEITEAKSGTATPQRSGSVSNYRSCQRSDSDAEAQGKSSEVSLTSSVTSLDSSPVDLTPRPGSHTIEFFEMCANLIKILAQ
Serine/threonine-protein kinase N2 (Homo sapiens), sequence (Q16513 whole entry, looked up): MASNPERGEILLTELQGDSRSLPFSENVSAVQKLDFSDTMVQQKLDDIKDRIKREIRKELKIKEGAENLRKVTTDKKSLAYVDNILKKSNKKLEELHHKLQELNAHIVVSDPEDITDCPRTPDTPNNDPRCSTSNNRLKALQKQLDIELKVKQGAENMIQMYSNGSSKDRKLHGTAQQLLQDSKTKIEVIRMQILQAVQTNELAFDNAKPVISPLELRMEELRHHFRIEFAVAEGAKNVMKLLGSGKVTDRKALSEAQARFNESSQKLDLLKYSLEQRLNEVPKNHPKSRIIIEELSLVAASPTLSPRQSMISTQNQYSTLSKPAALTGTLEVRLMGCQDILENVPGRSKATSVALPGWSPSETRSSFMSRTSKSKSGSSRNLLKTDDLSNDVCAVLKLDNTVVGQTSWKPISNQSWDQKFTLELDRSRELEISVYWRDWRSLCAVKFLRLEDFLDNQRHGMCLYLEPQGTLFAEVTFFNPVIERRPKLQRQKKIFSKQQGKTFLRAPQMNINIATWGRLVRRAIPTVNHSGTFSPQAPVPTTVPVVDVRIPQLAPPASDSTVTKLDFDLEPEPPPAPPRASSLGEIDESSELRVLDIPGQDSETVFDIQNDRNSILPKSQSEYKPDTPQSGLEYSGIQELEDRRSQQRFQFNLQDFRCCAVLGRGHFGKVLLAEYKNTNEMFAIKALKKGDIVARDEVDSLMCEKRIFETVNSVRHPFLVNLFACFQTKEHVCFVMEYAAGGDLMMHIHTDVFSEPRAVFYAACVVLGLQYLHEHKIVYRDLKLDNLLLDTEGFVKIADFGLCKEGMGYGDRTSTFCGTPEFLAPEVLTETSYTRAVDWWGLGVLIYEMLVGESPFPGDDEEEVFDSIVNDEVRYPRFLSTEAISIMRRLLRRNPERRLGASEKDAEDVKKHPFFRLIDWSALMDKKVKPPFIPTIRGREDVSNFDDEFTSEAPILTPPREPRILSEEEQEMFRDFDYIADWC
Ribosomal protein S6 kinase alpha-5 (Homo sapiens), sequence (O75582 whole entry, looked up): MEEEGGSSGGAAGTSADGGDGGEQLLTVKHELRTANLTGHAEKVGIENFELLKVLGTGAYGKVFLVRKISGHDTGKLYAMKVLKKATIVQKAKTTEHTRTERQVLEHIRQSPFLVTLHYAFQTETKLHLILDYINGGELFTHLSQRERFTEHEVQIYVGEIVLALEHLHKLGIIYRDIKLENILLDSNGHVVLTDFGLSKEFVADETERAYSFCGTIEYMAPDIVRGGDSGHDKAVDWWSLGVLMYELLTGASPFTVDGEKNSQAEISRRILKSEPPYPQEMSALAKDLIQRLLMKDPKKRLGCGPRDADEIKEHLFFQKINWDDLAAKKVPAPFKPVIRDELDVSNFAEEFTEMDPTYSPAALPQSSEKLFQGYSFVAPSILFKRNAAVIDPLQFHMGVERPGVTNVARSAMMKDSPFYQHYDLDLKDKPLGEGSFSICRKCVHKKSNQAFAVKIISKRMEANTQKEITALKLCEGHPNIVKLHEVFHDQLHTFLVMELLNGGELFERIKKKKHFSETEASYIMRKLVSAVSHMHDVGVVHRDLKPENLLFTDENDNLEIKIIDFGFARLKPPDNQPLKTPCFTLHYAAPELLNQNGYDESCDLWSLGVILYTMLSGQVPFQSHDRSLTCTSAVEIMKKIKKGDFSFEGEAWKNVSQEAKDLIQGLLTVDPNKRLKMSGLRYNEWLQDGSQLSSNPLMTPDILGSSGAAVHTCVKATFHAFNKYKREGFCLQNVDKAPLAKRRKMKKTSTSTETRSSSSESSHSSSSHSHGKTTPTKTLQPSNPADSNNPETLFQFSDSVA

residual activity [1] [%]	residual activity [2] [%]	residual activity [3] [%]	residual activity [4] [%]	residual activity [5] [%]	residual activity [6] [%]	residual activity [7] [%]	residual activity [8] [%]	residual activity [9] [%]	residual activity [10] [%]	residual activity [11] [%]	residual activity [12] [%]	Structure (SMILES)
57	97	85	96	91	101	85	97	93	87	99	99	COc1cc2c(Oc3ccc(-c4nc5ccccc5s4)cc3)ncnc2cc1OCCCN1CCCC1
50	95	75	89	91	94	95	82	93	88	88	100	COc1cc2c(Oc3ccc(-c4nc5ccccc5s4)cc3)ncnc2cc1OCCCN1CCN(C)CC1
38	96	77	86	91	86	75	94	98	87	99	103	COc1cc2c(Oc3ccc(-c4nc5ccccc5s4)cc3F)ncnc2cc1OCCCN1CCN(C)CC1
